In paper PMC6151437, “Antibacterial Synthetic Peptides Derived from Bovine Lactoferricin Exhibit Cytotoxic Effect against MDA-MB-468 and MDA-MB-231 Breast Cancer Cell Lines” (Molecules : A Journal of Synthetic Chemistry and Natural …, 2017) one finds concentration of maximum cytotoxic effect and minimum concentration with maximum (optimal) cytotoxic effect data, which are given here for 2 compounds.

Assay in assay [1]: not given
This is another data set of the same source.

Molecules are shown by their SMILES. Bridge positions count the residues as written; N and C are the ends. Square brackets hold non-standard residues; d marks the D form. Peptide text beside a SMILES is read from it. I, II: the chains in the order shown. Ahx = NCCCCCC(=O)O

Compound `CSCC[C@H](NC(=O)[C@H](CCCNC(=N)N)NC(=O)[C@H](Cc1c[nH]c2ccccc12)NC(=O)[C@H](CCC(N)=O)NC(=O)[C@H](Cc1c[nH]c2ccccc12)NC(=O)[C@H](CCCNC(=N)N)NC(=O)[C@@H](N)CCCNC(=N)N)C(=O)N[C@@H](CCCCN)C(=O)N[C@@H](CCCCN)C(=O)N[C@@H](CC(C)C)C(=O)NCC(=O)NCCCC[C@H](NC(=O)CNC(=O)[C@H](CC(C)C)NC(=O)[C@H](CCCCN)NC(=O)[C@H](CCCCN)NC(=O)[C@H](CCSC)NC(=O)[C@H](CCCNC(=N)N)NC(=O)[C@H](Cc1c[nH]c2ccccc12)NC(=O)[C@H](CCC(N)=O)NC(=O)[C@H](Cc1c[nH]c2ccccc12)NC(=O)[C@H](CCCNC(=N)N)NC(=O)[C@@H](N)CCCNC(=N)N)C(=O)NCCCCCC(N)=O` (I: H-RRWQWRMKKLGK[Ahx]-NH2 / II: H-RRWQWRMKKLG; amide I:12-II:C) displayed a concentration of maximum cytotoxic effect of 30 µM. In assay [1], `N=C(N)NCCC[C@H](NC(=O)[C@H](Cc1c[nH]c2ccccc12)NC(=O)[C@H](CCC(N)=O)NC(=O)[C@H](Cc1c[nH]c2ccccc12)NC(=O)[C@H](CCCNC(=N)N)NC(=O)[C@@H](N)CCCNC(=N)N)C(=O)NCCCC[C@H](NC(=O)[C@H](CCCNC(=N)N)NC(=O)[C@H](Cc1c[nH]c2ccccc12)NC(=O)[C@H](CCC(N)=O)NC(=O)[C@H](Cc1c[nH]c2ccccc12)NC(=O)[C@H](CCCNC(=N)N)NC(=O)[C@@H](N)CCCNC(=N)N)C(=O)NCCCCCC(=O)N[C@@H](CSSC[C@H](NC(=O)CCCCCNC(=O)[C@H](CCCCNC(=O)[C@H](CCCNC(=N)N)NC(=O)[C@H](Cc1c[nH]c2ccccc12)NC(=O)[C@H](CCC(N)=O)NC(=O)[C@H](Cc1c[nH]c2ccccc12)NC(=O)[C@H](CCCNC(=N)N)NC(=O)[C@@H](N)CCCNC(=N)N)NC(=O)[C@H](CCCNC(=N)N)NC(=O)[C@H](Cc1c[nH]c2ccccc12)NC(=O)[C@H](CCC(N)=O)NC(=O)[C@H](Cc1c[nH]c2ccccc12)NC(=O)[C@H](CCCNC(=N)N)NC(=O)[C@@H](N)CCCNC(=N)N)C(N)=O)C(N)=O` (I: H-RRWQWRK[Ahx]C-NH2 / II: H-RRWQWRK[Ahx]C-NH2 / III: H-RRWQWR / IV: H-RRWQWR; amide I:7-III:C, II:7-IV:C; disulfide I:9-II:9) registered a minimum concentration with maximum (optimal) cytotoxic effect of 22 µM.
